Laboratory results: paper PMC9871955, “High-throughput screening of SARS-CoV-2 main and papain-like protease inhibitors” (Protein & Cell, 2022)
Read-outs that look alike come from different tables or passages of the source.

What was measured:
SARS-CoV-2 M^pro = SARS-CoV-2 M^pro (Severe acute respiratory syndrome coronavirus 2, UniProt P0DTD1); test: biochemical
[1] = Table S1, M^pro inhibitors, 40 nmol/L enzyme, 20 µmol/L substrate, read-out: IC50
[2] = Table S1, M^pro inhibitors, same inhibitor concentration (10 µg/mL)
[3] = Table S3, representative dual inhibitors, read-out: IC50 for M^pro
[4] = Table S2, PL^pro inhibitors, same inhibitor concentration
[5] = read-out: IC50 / inhibitory activity against M^pro

SMILES | IC50 (SARS-CoV-2 M^pro; IC50 (μM) at S/KM 1/2) | IC50 (SARS-CoV-2 M^pro; IC50 (μM) at S/KM 2) | IC50 (SARS-CoV-2 M^pro; [1]) | Cytotoxicity activity (%) (Vero cells; [2]) | IC50 (SARS-CoV-2 M^pro; IC50 (μM) at S/KM 1) | IC50 (SARS-CoV-2 M^pro; [3]) | Cytotoxicity activity (%) (Vero cells; [4]) | also measured
O=C1NC(=O)N(Cc2ccccc2)C(=O)C1=Cc1ccco1 [WNN3797-H008] | 0.67 ± 0.28 µM | 0.55 ± 0.02 µM | 0.172 µM | -7.75% |  |  |  | 
CCOc1cc(C(=O)NCc2n[nH]c(=S)n2-c2ccc(Br)cc2)cc(OCC)c1OCC [JK0109-B004] | 1.01 ± 0.25 µM | 2.17 ± 0.27 µM |  |  | 1.62 ± 0.24 µM | 9.7 ± 0.1 µM | -7.5% | 
O=C(NCc1n[nH]c(=S)n1-c1ccc(Br)cc1)c1ccc(Cl)cc1Cl [JK0108-D008] |  | 5.83 ± 1.68 µM |  |  | 4.37 ± 0.84 µM |  | -8.62% | IC50 (SARS-CoV-2 M^pro; [5]): 0.5 µM
O=C1NC(=O)C(=Cc2ccc(-c3cccc(Cl)c3Cl)o2)C(=O)N1 [WNN3989-H007] | 0.11 ± 0.01 µM |  | 0.552 ± 0.12 µM | -4.89% |  |  |  | 
O=C1NC(=O)C(=Cc2ccc(-c3cccc(C(F)(F)F)c3)o2)C(=O)N1 [WNN3953-B007] |  | 0.53 ± 0.1 µM | 0.16 ± 0.009 µM | 13.01% | 0.77 ± 0.14 µM |  |  | 
Cc1ccc(NCc2n[nH]c(=S)n2-c2ccccc2)cc1 [WNN2867-E005] |  |  | 0.466 ± 0.101 µM | -6.94% |  |  |  | 
O=C1NC(=O)C(=Cc2ccc(-c3cccc(Cl)c3)o2)C(=O)N1 [RUS0245-E010] | 0.34 ± 0.04 µM | 0.34 ± 0.09 µM | 0.196 ± 0.009 µM | -8.14% | 0.25 ± 0.04 µM |  |  | 
CC(C(=O)NCc1ccco1)n1c(Cc2c(Cl)cccc2Cl)nc2ccccc21 (stereo not shown) [CD3531-C011] |  |  |  |  |  |  | -14.28% | 
COc1ccc(CN2C(=O)NC(=O)/C(=C\c3ccco3)C2=O)cc1 [CDE0972-G011] |  |  |  | -7.84% |  |  |  | IC50 (SARS-CoV-2 M^pro; read-out: IC50 (μM) at S/KM 1): 2.86 ± 0.53 µM; IC50 (SARS-CoV-2 M^pro; read-out: IC50 (μM) at S/KM 1/2): 2.17 ± 0.2 µM; IC50 (SARS-CoV-2 M^pro; read-out: IC50 (μM) at S/KM 2): 3.5 ± 0.42 µM
O=c1sc2ccccc2n1Cc1n[nH]c(=S)n1-c1ccccc1 [JK0946-F007] | 3.56 ± 0.62 µM | 8.97 ± 2.32 µM |  |  | 9.67 ± 3.64 µM | 8.7 ± 0.9 µM | -4.63% | IC50 (SARS-CoV-2 M^pro; [5]): 4.2 ± 0.6 µM
COc1ccc(-n2c(CNC(=O)COc3ccc(Cl)cc3Cl)n[nH]c2=S)cc1 [JK0109-B011] | 1.33 ± 0.26 µM |  |  |  | 1.53 ± 0.58 µM | 21.8 ± 0.3 µM | -7.31% | 
O=C(Oc1cncc(Cl)c1)c1sccc1Cl [WNN2048-F004] |  | 0.33 ± 0.07 µM | 0.131 ± 0.011 µM | 6.16% | 0.35 ± 0.11 µM |  |  | dependence of apparent IC50 on substrate concentration (SARS-CoV-2 M^pro): consistent IC50 that is not affected by substrate concentration; IC50 (SARS-CoV-2 M^pro; running text and Figure 4A, read-out: IC50 against M^pro): 0.103 ± 0.0052 µM; cytotoxicity effect (Vero cells; in words): without cytotoxicity effect
CCC(C(=O)NCc1ccco1)n1c(Cc2c(Cl)cccc2Cl)nc2ccccc21 (stereo not shown) [CD3226-D010] |  |  |  |  |  |  | -22.39% | 
COc1ccc(-n2c(S)nnc2CNC(=O)c2cc(OC)c(OC)c(OC)c2)cc1 [JK0109-C011] | 2.3 ± 0.96 µM |  |  |  | 16.1 ± 3.07 µM | 42.8 ± 1.7 µM | -9.42% | 
COc1ccc(-n2c(S)nnc2CNc2ccc(C)cc2)cc1 [RUS0105-C005] |  |  | 0.478 ± 0.009 µM | 5.87% |  |  |  | 
O=C(COc1ccc(Cl)cc1)NCc1n[nH]c(=S)n1-c1ccc(Br)cc1 [JK0109-H005] | 1.33 ± 0.28 µM | 3.36 ± 0.47 µM |  |  |  | 4.2 ± 0.7 µM | -4.08% | IC50 (μM) at S/KM 1 (SARS-CoV-2 M^pro): 4.17 ± 1.29 µM
